{"source": "paper PMC6912862", "about": "(ACS Medicinal Chemistry Letters, 2019)", "origin": "cited, not measured here", "key": {"HeLa cells": {"test_system": "HeLa cells", "details": "cisplatin comparison"}, "HeLa xenograft": {"test_system": "HeLa xenograft", "details": "same conditions (2.0 mg/kg), p < 0.05"}}, "note": "Values joined by “and” are separate entries in the source; they are usually repeats but may differ in a detail not shown here. Equal values may be shown once."}
{"smiles": "N.N.[Cl][Pt][Cl]", "note": "[cisplatin, cis-[PtCl2(NH3)2]]", "values": [{"measurement": "Cell accumulation of Pt", "setting": "HeLa cells", "result": "4.11 ± 0.59 (nmol of Pt)/10^6 cells"}, {"measurement": "Inhibition of tumor growth (IR), cisplatin-treated groups", "setting": "HeLa xenograft", "result": "35.2% and 35.2 ± 5.8%"}]}
